# Results as given in ChEMBL document CHEMBL1201862, “PubChem BioAssay data set” (2004).
#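 Each compound was tested at five concentrations against cells in 96-well plates for 48 hours. GI50: concentration for 50% inhibition of growth.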 The source made the active and inactive calls. Cut-off read from the data, not from the text of the source: active = GI50 up to about 1.1 µM and inactive = higher.
# How the values were obtained:
# Assay in all cases: DTP human tumour cell line panel, 48 h
# T47D = test system: T47D
# LOX IMVI = test system: LOX IMVI
# CAKI-1 = test system: CAKI-1
# CCRF-CEM = test system: CCRF-CEM
# RPMI-8226 = test system: RPMI-8226
# MDA-MB-231 = test system: MDA-MB-231
# A549 = test system: A549
# OVCAR-5 = test system: OVCAR-5
# SF-268 = test system: SF-268
# NCI-H522 = test system: NCI-H522
# U-251 = test system: U-251
# PC-3 = test system: PC-3
# SW-620 = test system: SW-620
# Hs-578T = test system: Hs-578T
# IGROV-1 = test system: IGROV-1
# HCT-15 = test system: HCT-15
# SR = test system: SR
# NCI-H460 = test system: NCI-H460
# HCT-116 = test system: HCT-116
# NCI-H226 = test system: NCI-H226
SMILES,GI50 (T47D),GI50 (LOX IMVI),GI50 (CAKI-1),GI50 (CCRF-CEM),GI50 (RPMI-8226),GI50 (MDA-MB-231),GI50 (A549),GI50 (OVCAR-5),GI50 (SF-268),GI50 (NCI-H522),GI50 (U-251),GI50 (PC-3),GI50 (SW-620),GI50 (Hs-578T),GI50 (IGROV-1),GI50 (HCT-15),GI50 (SR),GI50 (NCI-H460),GI50 (HCT-116),GI50 (NCI-H226)
O=C(OC(/C=C/c1ccccc1)P1(=O)N(Cc2ccccc2)[C@@H]2CCCC[C@H]2N1Cc1ccccc1)c1ccccc1 (stereo not given in full),4.43 µM (inactive),3.57 µM (inactive),3.56 µM (inactive),2.52 µM (inactive),2.21 µM (inactive),2.82 µM (inactive),3.94 µM (inactive),4.43 µM (inactive),6.37 µM (inactive),3.17 µM (inactive),3.79 µM (inactive),3.16 µM (inactive),4.57 µM (inactive),6.67 µM (inactive),2.9 µM (inactive),3.44 µM,2.81 µM (inactive),2.91 µM (inactive),2.87 µM (inactive),6.43 µM (inactive)
CCCCc1ccc(Nc2nc(Cl)c3c(ncn3C3CC(Oc4ccc(C)cc4)C(COc4ccc(C)cc4)O3)n2)cc1 (stereo not given),> 100 µM (inactive),> 100 µM (inactive),> 100 µM (inactive),> 100 µM (inactive),> 100 µM (inactive),> 100 µM (inactive),> 100 µM (inactive),> 100 µM (inactive),> 100 µM (inactive),> 100 µM (inactive),> 100 µM (inactive),> 100 µM (inactive),> 100 µM (inactive),42.5 µM (inactive),> 100 µM (inactive),> 100 µM,> 100 µM (inactive),> 100 µM (inactive),> 100 µM (inactive),> 100 µM (inactive)
Cc1ccc(S(=O)(=O)N/N=C2\CCC3(O)CC2(C)CCC2C3CC2(C)C)cc1 (stereo not given),35.1 µM (inactive),32.1 µM (inactive),37.2 µM (inactive),> 100 µM (inactive),> 100 µM (inactive),47.8 µM (inactive),33.4 µM (inactive),50.6 µM (inactive),37.4 µM (inactive),20.9 µM (inactive),42.7 µM (inactive),22 µM (inactive),78 µM (inactive),20 µM (inactive),45.1 µM (inactive),36.2 µM,> 100 µM (inactive),19.3 µM (inactive),30.7 µM (inactive),27.4 µM (inactive)
Nc1ncnc2oc(C3OC(COC(=O)c4ccccc4)C(OC(=O)c4ccccc4)C3OC(=O)c3ccccc3)nc12 (stereo not given),21.1 µM (inactive),> 100 µM (inactive),> 100 µM (inactive),> 100 µM (inactive),> 100 µM (inactive),> 100 µM (inactive),> 100 µM (inactive),> 100 µM (inactive),> 100 µM (inactive),> 100 µM (inactive),> 100 µM (inactive),98.6 µM (inactive),> 100 µM (inactive),49.2 µM (inactive),> 100 µM (inactive),> 100 µM,> 100 µM (inactive),> 100 µM (inactive),> 100 µM (inactive),> 100 µM (inactive)
CCc1cccc(C(C)(C)C)c1NC(=S)N/C=C(/C#N)C(N)=O,95.5 µM (inactive),> 100 µM (inactive),> 100 µM (inactive),> 100 µM (inactive),> 100 µM (inactive),> 100 µM (inactive),> 100 µM (inactive),> 100 µM (inactive),> 100 µM (inactive),> 100 µM (inactive),> 100 µM (inactive),> 100 µM (inactive),> 100 µM (inactive),83 µM (inactive),> 100 µM (inactive),62.4 µM,> 10 µM (inactive),> 100 µM (inactive),> 100 µM (inactive),> 100 µM (inactive)
CC(=O)Nc1cc([As](=O)(O)O)ccc1O [ACETARSONE],> 100 µM (inactive),> 100 µM (inactive),> 100 µM (inactive),> 100 µM (inactive),> 100 µM (inactive),> 100 µM (inactive),> 100 µM (inactive),> 100 µM (inactive),> 100 µM (inactive),> 100 µM (inactive),> 100 µM (inactive),> 100 µM (inactive),> 100 µM (inactive),> 100 µM (inactive),> 100 µM (inactive),> 100 µM,> 100 µM (inactive),> 100 µM (inactive),> 100 µM (inactive),> 100 µM (inactive)
Oc1ccccc1/C=N/Nc1nnc2c3ccccc3c3ccccc3c2n1,65 µM (inactive),84.3 µM (inactive),> 100 µM (inactive),> 100 µM (inactive),> 100 µM (inactive),> 100 µM (inactive),> 100 µM (inactive),> 100 µM (inactive),> 100 µM (inactive),20 µM (inactive),> 100 µM (inactive),80.5 µM (inactive),82.4 µM (inactive),> 100 µM (inactive),39.9 µM (inactive),73.6 µM,52.6 µM (inactive),41.8 µM (inactive),> 100 µM (inactive),> 100 µM (inactive)
CN(O)C(=O)Cc1ccc(OCc2cccc(Cl)c2)cc1,40.4 µM (inactive),> 100 µM (inactive),> 100 µM (inactive),> 100 µM (inactive),> 100 µM (inactive),> 100 µM (inactive),> 100 µM (inactive),> 100 µM (inactive),> 100 µM (inactive),> 100 µM (inactive),> 100 µM (inactive),> 100 µM (inactive),> 100 µM (inactive),> 100 µM (inactive),> 100 µM (inactive),> 100 µM,> 100 µM (inactive),> 100 µM (inactive),> 100 µM (inactive),> 100 µM (inactive)
